Our source for the EC50 and Emax values is patent publication US8802700B2 (Vertex Pharmaceuticals Incorporated, priority 2010, dated 2014).

T1 sequence (P13569 with tags, fused parts or gaps DEL508-508): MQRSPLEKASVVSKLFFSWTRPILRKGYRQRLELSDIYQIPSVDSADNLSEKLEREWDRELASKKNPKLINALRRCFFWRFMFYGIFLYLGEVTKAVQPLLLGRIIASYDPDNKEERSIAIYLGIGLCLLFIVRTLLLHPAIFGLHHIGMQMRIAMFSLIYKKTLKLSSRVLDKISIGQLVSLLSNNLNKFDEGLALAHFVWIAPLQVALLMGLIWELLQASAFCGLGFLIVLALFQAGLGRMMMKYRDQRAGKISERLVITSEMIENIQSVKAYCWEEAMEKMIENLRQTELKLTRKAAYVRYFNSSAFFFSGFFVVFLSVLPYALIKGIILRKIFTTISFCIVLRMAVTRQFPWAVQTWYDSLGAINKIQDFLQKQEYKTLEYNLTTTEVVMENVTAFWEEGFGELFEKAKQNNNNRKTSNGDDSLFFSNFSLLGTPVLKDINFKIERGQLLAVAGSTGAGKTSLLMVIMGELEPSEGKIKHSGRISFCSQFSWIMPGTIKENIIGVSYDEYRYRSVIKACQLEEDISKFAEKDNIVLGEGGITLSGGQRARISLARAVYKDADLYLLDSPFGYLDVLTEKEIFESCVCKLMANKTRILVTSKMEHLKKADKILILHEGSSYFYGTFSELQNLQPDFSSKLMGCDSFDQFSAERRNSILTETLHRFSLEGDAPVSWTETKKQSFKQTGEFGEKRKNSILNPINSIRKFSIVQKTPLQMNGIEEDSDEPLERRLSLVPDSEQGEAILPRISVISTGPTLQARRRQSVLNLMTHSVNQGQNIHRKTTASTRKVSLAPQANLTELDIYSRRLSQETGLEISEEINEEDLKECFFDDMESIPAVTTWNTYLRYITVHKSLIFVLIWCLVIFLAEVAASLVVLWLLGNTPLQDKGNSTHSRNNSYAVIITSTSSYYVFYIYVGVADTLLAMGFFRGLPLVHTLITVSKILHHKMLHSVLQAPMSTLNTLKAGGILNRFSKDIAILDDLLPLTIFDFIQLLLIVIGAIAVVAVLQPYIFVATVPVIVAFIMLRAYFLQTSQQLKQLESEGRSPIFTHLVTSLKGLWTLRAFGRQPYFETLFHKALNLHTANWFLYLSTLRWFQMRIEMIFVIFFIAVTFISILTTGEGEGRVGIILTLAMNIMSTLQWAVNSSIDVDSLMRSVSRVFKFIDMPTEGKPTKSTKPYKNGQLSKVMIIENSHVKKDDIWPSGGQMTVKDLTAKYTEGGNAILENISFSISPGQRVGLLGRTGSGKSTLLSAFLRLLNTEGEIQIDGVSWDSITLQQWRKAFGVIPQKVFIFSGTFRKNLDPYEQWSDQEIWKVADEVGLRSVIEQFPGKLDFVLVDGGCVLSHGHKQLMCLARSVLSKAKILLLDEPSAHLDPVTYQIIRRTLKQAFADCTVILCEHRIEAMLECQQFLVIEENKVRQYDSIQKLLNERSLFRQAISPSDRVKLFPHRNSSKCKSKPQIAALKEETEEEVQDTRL

The first assay concerns the target T1, ΔF508-CFTR (Homo sapiens, UniProt P13569, DEL508-508).
T1 construct: expressed in transfected cells
Kind of assay: Membrane potential optical assay (FRET voltage-sensor dyes, VIPR), identification of potentiator compounds. The following applies: Table 3; assay not given. Type of assay: cell-based. The method in brief:
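Potentiator screen measured membrane potential via FRET between CC2-DMPE donor and DiSBAC2(3), read on VIPR II. Compound went in with the first addition of chloride-free gluconate bath; cells were ΔF508-CFTR-expressing NIH3T3 mouse fibroblasts, temperature-corrected at 27 °C for 24 h.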
`CC(=O)N1CCCC(C)(C)c2ccc(NC(=O)c3c[nH]c4ccccc4c3=O)cc21` [Compound 109, N-(1-acetyl-2,3,4,5-tetrahydro-5,5-dimethyl-1H-benzo[b]azepin-8-yl)-1,4-dihydro-4-oxoquinoline-3-carboxamide]: the EC50 was 10 to 25 µM.
Consider `Nc1cc(Cl)cc(NC(=O)c2c[nH]c3ccccc3c2=O)c1` [Compound 131, N-(3-amino-5-chloro-phenyl)-4-oxo-1H-quinoline-3-carboxamide], for which the EC50 is under 10 µM.
The same measure, in the same setting: under `COc1ccc(OC)c(-c2ccccc2NC(=O)c2c[nH]c3ccccc3c2=O)c1` [Compound 361, N-[2-(2,5-dimethoxyphenyl)phenyl]-4-oxo-1H-quinoline-3-carboxamide] stands under 10 µM.

Still in this assay, the particulars now being: Table 3; assay not given; read-out: % Activity (% Efficacy, relative efficacy).
On to `CC(C)(C)c1cc(F)c(NC(=O)c2c[nH]c3c(C(F)(F)F)cccc3c2=O)cc1O` [Compound 638, N-(2-fluoro-5-hydroxy-4-tert-butyl-phenyl)-4-oxo-8-(trifluoromethyl)-1H-quinoline-3-carboxamide], for which the Emax is under 25%.
With `Cc1cccc2[nH]cc(C(=O)Nc3ccc(N4CCC[C@H]4C)cc3C(F)(F)F)c(=O)c12` [Compound 697, (R)-5-methyl-N-(4-(2-methylpyrrolidin-1-yl)-2-(trifluoromethyl)phenyl)-4-oxo-1,4-dihydroquinoline-3-carboxamide], the Emax was 25 to 100%.
With `COc1ccc(Oc2ccc(C(F)(F)F)cc2NC(=O)c2c[nH]c3ccccc3c2=O)cc1` [Compound 205, N-[2-(4-methoxyphenoxy)-5-(trifluoromethyl)phenyl]-4-oxo-1H-quinoline-3-carboxamide], the Emax lay in the range of 25 to 100%.
As for `CCOC(=O)Nc1cc(NC(=O)c2c[nH]c3ccccc3c2=O)ccc1C(C)C` [Compound 225, [2-isopropyl-5-[(4-oxo-1H-quinolin-3-yl)carbonylamino]phenyl]aminoformic acid ethyl ester], the Emax fell in the range of 25 to 100%.
As to `C=C(C)c1ccccc1NC(=O)c1c[nH]c2ccccc2c1=O` [Compound 445, N-(2-isopropenylphenyl)-4-oxo-1H-quinoline-3-carboxamide], the Emax is over 100%.
As to `CC(C)(CO)c1ccc(NC(=O)c2c[nH]c3ccccc3c2=O)cc1` [Compound 5, N-[4-(2-hydroxy-1,1-dimethyl-ethyl)phenyl]-4-oxo-1H-quinoline-3-carboxamide], the Emax fell in the range of 25 to 100%.
For `CCOc1cccc(-c2cc(C(C)(C)C)c(O)cc2NC(=O)c2c[nH]c3ccccc3c2=O)c1` [Compound 43, N-[2-(3-ethoxyphenyl)-5-hydroxy-4-tert-butyl-phenyl]-4-oxo-1H-quinoline-3-carboxamide], the Emax was 25 to 100%.
On the same count and under the same terms, under `Cc1ccc2c(c1)c(=O)c(C(=O)Nc1ccccc1-c1ccccc1)cn2C` [Compound 128, 1,6-dimethyl-4-oxo-N-(2-phenylphenyl)-1H-quinoline-3-carboxamide] stands under 25%.
Turning to `O=C(Nc1ccc2ncccc2c1)c1c[nH]c2ccccc2c1=O` [Compound 280, 4-oxo-N-(6-quinolyl)-1H-quinoline-3-carboxamide], the Emax is under 25%.
As for `CCCc1ccc(NC(=O)OC)cc1NC(=O)c1c[nH]c2ccccc2c1=O` [Compound 471, [3-[(4-oxo-1H-quinolin-3-yl)carbonylamino]-4-propyl-phenyl]aminoformic acid methyl ester], the Emax fell in the range of 25 to 100%.
With `CC(C)(C)c1cccc(NC(=O)c2c[nH]c3ccc(F)cc3c2=O)c1` [Compound 664, 6-fluoro-4-oxo-N-(3-tert-butylphenyl)-1H-quinoline-3-carboxamide], the Emax was 25 to 100%.
Regarding `CC(C)(C)OC(=O)NC1CCCc2ccc(NC(=O)c3c[nH]c4ccccc4c3=O)cc21` (centres unmarked) [Compound 273, [7-[(4-oxo-1H-quinolin-3-yl)carbonylamino]tetralin-1-yl]aminoformic acid tert-butyl ester], the Emax was over 100%.
As to `Cc1ccc(NC(=O)c2c[nH]c3ccccc3c2=O)nc1` [Compound 195, N-(5-methyl-2-pyridyl)-4-oxo-1H-quinoline-3-carboxamide], the Emax is under 25%.
As for `COCCn1ccc2cc(C(F)(F)F)c(NC(=O)c3c[nH]c4ccc(F)cc4c3=O)cc21` [Compound 566, 6-fluoro-N-[1-(2-methoxyethyl)-5-(trifluoromethyl)indol-6-yl]-4-oxo-1H-quinoline-3-carboxamide], the Emax lay within 25 to 100%.
For the compound `CCc1ccc(NC(=O)c2c[nH]c3ccccc3c2=O)cc1NC(=O)OC` [Compound 129, [2-ethyl-5-[(4-oxo-1H-quinolin-3-yl)carbonylamino]phenyl]aminoformic acid methyl ester], the Emax was 25 to 100%.
The same measure, in the same setting: in the case of `O=C(Nc1cc(O)c(Cl)cc1F)c1c[nH]c2ccccc2c1=O` [Compound 695, N-(4-chloro-2-fluoro-5-hydroxy-phenyl)-4-oxo-1H-quinoline-3-carboxamide] it was 25 to 100%; in that of `O=C(Nc1ccc(S(=O)(=O)Nc2ccccn2)cc1)c1c[nH]c2ccccc2c1=O` [Compound 21, 4-oxo-N-[4-(2-pyridylsulfamoyl)phenyl]-1H-quinoline-3-carboxamide], under 25%; in that of `CCOC(=O)NCC(C)(C)c1ccc(NC(=O)c2c[nH]c3ccccc3c2=O)cc1` [Compound 119, [2-methyl-2-[4-[(4-oxo-1H-quinolin-3-yl)carbonylamino]phenyl]-propyl]aminoformic acid ethyl ester], 25 to 100%.
The same measure, in the same setting: in the case of `COc1cccc(OC)c1-c1cc2cc[nH]c2cc1NC(=O)c1c[nH]c2ccccc2c1=O` [Compound 404, N-[5-(2,6-dimethoxyphenyl)-1H-indol-6-yl]-4-oxo-1H-quinoline-3-carboxamide] it was 25 to 100%; in that of `O=C(Nc1ccc2cc[nH]c2c1)c1cnc2cc(C(F)(F)F)cc(C(F)(F)F)c2c1O` [Compound 130, 4-hydroxy-N-(1H-indol-6-yl)-5,7-bis(trifluoromethyl)quinoline-3-carboxamide], 25 to 100%.
As to `O=C(Nc1ccc(OC(F)(F)F)cc1)c1c[nH]c2ccccc2c1=O` [Compound 176, 4-oxo-N-[4-(trifluoromethoxy)phenyl]-1H-quinoline-3-carboxamide], the Emax was in the range of 25 to 100%.
With `CC(C)c1ccc(NC(=O)c2c[nH]c3ccccc3c2=O)cc1N` [Compound 69, N-(3-amino-4-isopropyl-phenyl)-4-oxo-1H-quinoline-3-carboxamide], the Emax was 25 to 100%.
For `Cc1cccc2[nH]cc(C(=O)Nc3ccc(N4CC(F)(F)C[C@H]4C)cc3C(F)(F)F)c(=O)c12` [Compound 667, (R)-N-(4-(4,4-difluoro-2-methylpyrrolidin-1-yl)-2-(trifluoromethyl)phenyl)-5-methyl-4-oxo-1,4-dihydroquinoline-3-carboxamide], the Emax was 25 to 100%.
Regarding `COc1ccc(NC(=O)c2c[nH]c3ccccc3c2=O)cn1` [Compound 162, N-(6-methoxy-3-pyridyl)-4-oxo-1H-quinoline-3-carboxamide], the Emax is under 25%.
With `Cc1cc(C2C3CC4CC(C3)CC2C4)c(O)cc1NC(=O)c1c[nH]c2ccccc2c1=O` (centres unmarked) [Compound 208, N-[4-(2-adamantyl)-5-hydroxy-2-methyl-phenyl]-4-oxo-1H-quinoline-3-carboxamide], the Emax was 25 to 100%.
Turning to `CC(=O)N1CCCC(C)(C)c2ccc(NC(=O)c3c[nH]c4ccccc4c3=O)cc21` [Compound 109, N-(1-acetyl-2,3,4,5-tetrahydro-5,5-dimethyl-1H-benzo[b]azepin-8-yl)-1,4-dihydro-4-oxoquinoline-3-carboxamide], the Emax is 25 to 100%.
For the compound `CC1CCN(c2ccc(NC(=O)c3c[nH]c4ccccc4c3=O)c(C(F)(F)F)c2)C1` (centres unmarked) [Compound 555, N-[4-(3-methylpyrrolidin-1-yl)-2-(trifluoromethyl)phenyl]-4-oxo-1H-quinoline-3-carboxamide], the Emax lay within 25 to 100%.
For `Cc1cccc(C)c1NC(=O)c1c[nH]c2ccccc2c1=O` [Compound 315, N-(2,6-dimethylphenyl)-4-oxo-1H-quinoline-3-carboxamide], the Emax was in the range of 25 to 100%.
In the case of `O=C(Nc1ccc(N2CCOCC2)cc1)c1c[nH]c2ccccc2c1=O` [Compound 457, N-(4-morpholinophenyl)-4-oxo-1H-quinoline-3-carboxamide], the Emax was under 25%.
`COC(=O)[C@@H]1C[C@@H](OC(C)(C)C)CN1c1ccc(NC(=O)c2c[nH]c3ccccc3c2=O)c(C(F)(F)F)c1` [Compound 550, (2S,4R)-methyl 4-tert-butoxy-1-(4-(4-oxo-1,4-dihydroquinoline-3-carboxamido)-3-(trifluoromethyl)phenyl)pyrrolidine-2-carboxylate]: the Emax was 25 to 100%.
Consider `Cc1ccc(S(=O)(=O)Nc2ccccc2NC(=O)c2c[nH]c3ccccc3c2=O)cc1` [Compound 398, 4-oxo-N-[2-(p-tolylsulfonylamino)phenyl]-1H-quinoline-3-carboxamide], for which the Emax is 25 to 100%.
Consider `CC(C)c1cc(C(F)(F)F)c(NC(=O)c2c[nH]c3ccccc3c2=O)cc1O` [Compound 497, N-[5-hydroxy-4-isopropyl-2-(trifluoromethyl)phenyl]-4-oxo-1H-quinoline-3-carboxamide], for which the Emax is over 100%.
`O=C(Nc1ccc2c(c1)NCC21CC1)c1c[nH]c2ccccc2c1=O` [Compound 22, 4-Oxo-1,4-dihydro-quinoline-3-carboxylic acid N-(1′,2′-dihydrospiro[cyclopropane-1,3′-[3H]indol]-6′-yl)-amide]: the Emax lay within 25 to 100%.
Still for that read-out and setting: under `Nc1cc(Cl)cc(NC(=O)c2c[nH]c3ccccc3c2=O)c1` [Compound 131, N-(3-amino-5-chloro-phenyl)-4-oxo-1H-quinoline-3-carboxamide] stands 25 to 100%.
In the case of `COc1ccc(OC)c(-c2ccccc2NC(=O)c2c[nH]c3ccccc3c2=O)c1` [Compound 361, N-[2-(2,5-dimethoxyphenyl)phenyl]-4-oxo-1H-quinoline-3-carboxamide], the Emax was over 100%.
Turning to `COc1cc2c(=O)c(C(=O)Nc3cc(O)c(C(C)(C)C)cc3C(C)(C)C)c[nH]c2cc1F` [Compound 709, 7-fluoro-N-(5-hydroxy-2,4-ditert-butyl-phenyl)-6-methoxy-4-oxo-1H-quinoline-3-carboxamide], the Emax is over 100%.
In the case of `CCOC(=O)Cc1c[nH]c2cc(NC(=O)c3c[nH]c4ccccc4c3=O)ccc12` [Compound 207, 2-[6-[(4-oxo-1H-quinolin-3-yl)carbonylamino]-1H-indol-3-yl]acetic acid ethyl ester], the Emax is 25 to 100%.
Regarding `Nc1cc(NC(=O)c2c[nH]c3ccccc3c2=O)ccc1Cl` [Compound 453, N-(3-amino-4-chloro-phenyl)-4-oxo-1H-quinoline-3-carboxamide], the Emax is 25 to 100%.

Broadly, the EC50 is the concentration at which the effect is half-maximal.
